Reference: patent US20140162966A1, “NANOPARTICLES FOR DELIVERY OF LIGANDS” (The U.S.A, as represented by the Secretary, Department of …, priority 2012, published 2014)

Columns and labels:
4T1-fluc cells = assay: cellular uptake of Cy3-labeled siRNA; type: cell-based
Experimental: CD44 expression was confirmed by flow cytometry. The red fluoresecence from Cy3-labeled siRNA was more intense in 4T1-fluc cells that were treated with siRNA/HADPA-Zn-NPs than in the cells that were treated with Lipofectamine 2000 (Lipo2K)/siRNA. […] Furthermore, the uptake of siRNA/HADPA-Zn-NPs into 4T1-fluc cells was 3.7±0.5-fold higher than the uptake into 293T cells.

[1] = system: subcutaneous 4T1-fluc tumors; assay: in vivo gene silencing in 4T1-fluc xenograft mouse model (in vivo BLI); set-up: species or system Balb/C mice; settings: 72 hours after intratumor injection; siLuc 100 pmol and/or NPs 200 ug in 80 uL
Experimental: Four groups of Balb/C mice (n=5 per group) with subcutaneous 4T1-fluc tumors were treated with an intratumor injection of 80 uL of a buffer solution that contained siLuc/HADPA-Zn-NPs (100 pmol/200 ug), HADPA-Zn-NPs (200 ug), naked siLuc (100 pmol), or phosphate-buffered saline (PBS). The silencing of the fluc gene was measured by in vivo BLI. […] In contrast the control groups had increased levels of fluc expression ((30.0±4.1) %, (38.2±3.9)%, and (39.2±5.3)%, for HADPA-Zn-NPs, naked siRNA, and PBS, respectively, FIG. 8). The tumors from each group were harvested and weighed after BLI to determine whether the apparent gene silencing effect was a result of a reduction in the volume of the tumors as a consequence of the toxicity of the formulation. As shown by the […] testing, there was no significant difference in the neoplastic weights of the tumors between the various groups.

Substance	fluorescence observed in treated cells (4T1-fluc cells)	relative level of fluc expression [1]
Zn-dipicolylamine [Zn-DPA]	no fluorescence was observed	
naked siRNA: siRNA that targets the firefly luciferase gene, SEQUENCE ID NO. 1 and 2, without carrier (chain 1 GCACUCUGAUUGACAAAUACGAUUU; chain 2 AAAUCGUAUUUGUCAAUCAGAGUGC; listed as RNA, chemistry not given here)		38.2±3.9%
